Source: patent US20180057462A1, “Substituted 2-difluoromethyl-nicotin(thio)carboxanilide derivatives and their use as fungicides” (BAYER CROPSCIENCE AKTIENGESELLSCHAFT, priority 2015, published 2018)

Assay: LogP by HPLC on reversed phase columns (EEC directive 79/831 Annex V.A8), method [a]
Type: physicochemical
Details: LC-UV, acidic range, 0.1% formic acid in water and acetonitrile as eluent (linear gradient 10% to 95% acetonitrile)

Row | LogP[a] | Compound
1 | 3.92 | Cc1c(CCC2CC2(Cl)Cl)cccc1NC(=O)c1c(C(F)F)ccnc1C(F)F (stereo not drawn) [Example 1]
2 | 3.11 | O=C(Nc1cccc(-c2cc(F)ccc2F)c1Cl)c1cccnc1C(F)F [Example 2]
3 | 3.05 | O=C(Nc1cccc(-c2ccccc2)c1Cl)c1cccnc1C(F)F [Example 3]
4 | 2.99 | O=C(Nc1cccc(-c2ccccc2F)c1Cl)c1cccnc1C(F)F [Example 4]
5 | 3.12 | O=C(Nc1cccc(-c2cccc(F)c2)c1Cl)c1cccnc1C(F)F [Example 5]
6 | 3.12 | O=C(Nc1cccc(-c2ccc(F)cc2)c1Cl)c1cccnc1C(F)F [Example 6]
7 | 3.22 | O=C(Nc1cccc(-c2ccccc2Cl)c1Cl)c1cccnc1C(F)F [Example 7]
8 | 3.49 | O=C(Nc1cccc(-c2cccc(Cl)c2)c1Cl)c1cccnc1C(F)F [Example 8]
9 | 3.54 | O=C(Nc1cccc(-c2ccc(Cl)cc2)c1Cl)c1cccnc1C(F)F [Example 9]
10 | 3.12 | O=C(Nc1cccc(-c2ccc(F)cc2F)c1Cl)c1cccnc1C(F)F [Example 10]
11 | 3.02 | CCC(C)Oc1cccc(NC(=O)c2cccnc2C(F)F)c1C (stereo not drawn) [Example 11]
12 | 4.26 | CCCC(CCC)Oc1cccc(NC(=O)c2cccnc2C(F)F)c1C [Example 12]
13 | 3.17 | Cc1c(NC(=O)c2cccnc2C(F)F)cccc1OCC(C)C [Example 13]
14 | 3.41 | Cc1c(NC(=O)c2cccnc2C(F)F)cccc1OC(C)C(C)C (stereo not drawn) [Example 14]
15 | 3.79 | Cc1c(NC(=O)c2cccnc2C(F)F)cccc1OC(C)CC(C)C (stereo not drawn) [Example 15]
16 | 3.52 | Cc1c(NC(=O)c2cccnc2C(F)F)cccc1OC1CCCCC1 [Example 16]
17 | 3.23 | Cc1c(NC(=O)c2cccnc2C(F)F)cccc1OCc1ncc(C(F)(F)F)cc1Cl [Example 17]
18 | 3.48 | Cc1c(NC(=O)c2cccnc2C(F)F)cccc1Oc1ncc(C(F)(F)F)cc1Cl [Example 18]
19 | 3.55 | Cc1c(NC(=O)c2cccnc2C(F)F)cccc1OCc1ccc(Br)cc1 [Example 19]
20 | 2.57 | CCOCC(C)Oc1cccc(NC(=O)c2cccnc2C(F)F)c1C (stereo not drawn) [Example 20]
21 | 2.47 | C#CCOCC(C)Oc1cccc(NC(=O)c2cccnc2C(F)F)c1C (stereo not drawn) [Example 21]
22 | 3.04 | CCCOCC(C)Oc1cccc(NC(=O)c2cccnc2C(F)F)c1C (stereo not drawn) [Example 22]

Row | LogP[a] | Compound
23 | 3.55 | Cc1c(NC(=O)c2cccnc2C(F)F)cccc1OC(C)COCC(C)C (stereo not drawn) [Example 23]
24 | 3.31 | Cc1c(NC(=O)c2cccnc2C(F)F)cccc1OC(C)COC(C)(C)C (stereo not drawn) [Example 24]
25 | 3.06 | Cc1c(NC(=O)c2cccnc2C(F)F)cccc1OC(C)C1(Cl)CC1 (stereo not drawn) [Example 25]
26 | 3.17 | Cc1c(NC(=O)c2cccnc2C(F)F)cccc1OCCC1CC1 [Example 26]
27 | 2.26 | Cc1c(NC(=O)c2cccnc2C(F)F)cccc1OC(C)C1CCOC1 (stereo not drawn) [Example 27]
28 | 2.49 | CO/N=C\C(C)Oc1cccc(NC(=O)c2cccnc2C(F)F)c1C (stereo not drawn) [Example 28]
29 | 2.82 | CCO/N=C\C(C)Oc1cccc(NC(=O)c2cccnc2C(F)F)c1C (stereo not drawn) [Example 29]
30 | 3.33 | Cc1c(NC(=O)c2cccnc2C(F)F)cccc1OC(C)COc1ccccc1 (stereo not drawn) [Example 30]
31 | 3.68 | Cc1ccc(OCC(C)Oc2cccc(NC(=O)c3cccnc3C(F)F)c2C)cc1 (stereo not drawn) [Example 31]
32 | 3.74 | Cc1ccccc1OCC(C)Oc1cccc(NC(=O)c2cccnc2C(F)F)c1C (stereo not drawn) [Example 32]
33 | 3.68 | Cc1cccc(OCC(C)Oc2cccc(NC(=O)c3cccnc3C(F)F)c2C)c1 (stereo not drawn) [Example 33]
34 | 3.76 | Cc1c(NC(=O)c2cccnc2C(F)F)cccc1OC(C)COc1cccc(Cl)c1 (stereo not drawn) [Example 34]
35 | 3.59 | Cc1c(NC(=O)c2cccnc2C(F)F)cccc1OC(C)COc1ccccc1Cl (stereo not drawn) [Example 35]
36 | 3.06 | Cc1c(NC(=O)c2cccnc2C(F)F)cccc1OCc1ccc(F)cc1 [Example 36]
37 | 3.41 | Cc1c(NC(=O)c2cccnc2C(F)F)cccc1OCc1ccccc1Cl [Example 37]
38 | 3.52 | Cc1c(NC(=O)c2cccnc2C(F)F)cccc1OCc1cccc(C(F)(F)F)c1 [Example 38]
39 | 3.55 | Cc1c(NC(=O)c2cccnc2C(F)F)cccc1OCc1ccccc1C(F)(F)F [Example 39]
40 | 3.09 | Cc1c(NC(=O)c2cccnc2C(F)F)cccc1OCc1cccc(F)c1 [Example 40]
41 | 3.06 | Cc1c(NC(=O)c2cccnc2C(F)F)cccc1OCc1ccccc1F [Example 41]
42 | 3.96 | Cc1c(NC(=O)c2cccnc2C(F)F)cccc1OCc1cc(Cl)cc(Cl)c1 [Example 42]
43 | 3.85 | Cc1c(NC(=O)c2cccnc2C(F)F)cccc1OCc1cc(Cl)ccc1Cl [Example 43]
44 | 3.83 | Cc1c(NC(=O)c2cccnc2C(F)F)cccc1OCc1cccc(Cl)c1Cl [Example 45]

Row | LogP[a] | Compound
45 | 3.99 | Cc1c(NC(=O)c2cccnc2C(F)F)cccc1OCc1ccc(Cl)cc1Cl [Example 46]
46 | 3.65 | Cc1c(NC(=O)c2cccnc2C(F)F)cccc1OC(C)c1ccc(Cl)cc1 (stereo not drawn) [Example 47]
47 | 4.01 | Cc1c(NC(=O)c2cccnc2C(F)F)cccc1OC(C)c1ccc(Cl)c(Cl)c1 (stereo not drawn) [Example 48]
48 | 3.29 | Cc1c(NC(=O)c2cccnc2C(F)F)cccc1OC(C)c1ccc(F)cc1 (stereo not drawn) [Example 49]
49 | 3.79 | Cc1c(NC(=O)c2cccnc2C(F)F)cccc1OC(C)c1ccccc1Cl (stereo not drawn) [Example 50]
50 | 3.63 | Cc1c(NC(=O)c2cccnc2C(F)F)cccc1OC(C)c1cccc(Cl)c1 (stereo not drawn) [Example 51]
51 | 3.33 | Cc1c(NC(=O)c2cccnc2C(F)F)cccc1OC(C)c1c(F)cccc1F (stereo not drawn) [Example 52]
52 | 3.70 | Cc1c(NC(=O)c2cccnc2C(F)F)cccc1OC(C)c1cccc(C(F)(F)F)c1 (stereo not drawn) [Example 53]
53 | 3.52 | Cc1c(NC(=O)c2cccnc2C(F)F)cccc1OCc1cccc(Br)c1 [Example 54]
54 | 3.87 | Cc1c(NC(=O)c2cccnc2C(F)F)cccc1OC(C)c1ccccc1C(F)(F)F (stereo not drawn) [Example 55]
55 | 4.15 | Cc1c(NC(=O)c2cccnc2C(F)F)cccc1OC(C)c1cc(Cl)ccc1Cl (stereo not drawn) [Example 56]
56 | 3.37 | Cc1c(NC(=O)c2cccnc2C(F)F)cccc1OC(C)c1ccccc1F (stereo not drawn) [Example 57]
57 | 3.72 | Cc1c(NC(=O)c2cccnc2C(F)F)cccc1OCCc1ccc(C(F)(F)F)cc1 [Example 58]
58 | 3.74 | Cc1c(NC(=O)c2cccnc2C(F)F)cccc1OCCc1ccccc1C(F)(F)F [Example 59]
59 | 3.68 | Cc1c(NC(=O)c2cccnc2C(F)F)cccc1OCCc1cccc(C(F)(F)F)c1 [Example 60]
60 | 3.29 | Cc1c(NC(=O)c2cccnc2C(F)F)cccc1OCCc1cccc(F)c1 [Example 61]
61 | 3.31 | Cc1c(NC(=O)c2cccnc2C(F)F)cccc1OCCc1ccccc1F [Example 62]
62 | 3.29 | Cc1c(NC(=O)c2cccnc2C(F)F)cccc1OCCc1ccc(F)cc1 [Example 63]
63 | 3.65 | Cc1c(NC(=O)c2cccnc2C(F)F)cccc1OCCc1ccccc1Cl [Example 64]
64 | 3.61 | Cc1c(NC(=O)c2cccnc2C(F)F)cccc1OCCc1cccc(Cl)c1 [Example 65]
65 | 3.68 | Cc1c(NC(=O)c2cccnc2C(F)F)cccc1OCCc1ccc(Cl)cc1 [Example 66]
66 | 3.90 | Cc1c(NC(=O)c2cccnc2C(F)F)cccc1OC(C)Cc1ccc(Cl)cc1 (stereo not drawn) [Example 67]

Row | LogP[a] | Compound
67 | 3.85 | Cc1c(NC(=O)c2cccnc2C(F)F)cccc1OC(C)Cc1cccc(Cl)c1 (stereo not drawn) [Example 68]
68 | 3.90 | Cc1c(NC(=O)c2cccnc2C(F)F)cccc1OC(C)Cc1ccccc1Cl (stereo not drawn) [Example 69]
69 | 3.65 | Cc1c(NC(=O)c2cccnc2C(F)F)cccc1OC(C)CSc1ccccc1 (stereo not drawn) [Example 70]
70 | 2.82 | Cc1c(NC(=O)c2cccnc2C(F)F)cccc1OCc1cccs1 [Example 71]
71 | 3.37 | Cc1c(NC(=O)c2cccnc2C(F)F)cccc1OC(C)Cc1cccs1 (stereo not drawn) [Example 72]
72 | 3.57 | Cc1c(NC(=O)c2cccnc2C(F)F)cccc1OCc1ccc(C(F)(F)F)cc1 [Example 73]
73 | 3.92 | Cc1c(CCC(C)(C)C)cccc1NC(=O)c1cccnc1C(F)F [Example 74]
74 | 3.21 | Cc1c(NC(=O)c2cccnc2C(F)F)cccc1OC1CCCC1 [Example 75]
75 | 3.21 | Cc1c(NC(=O)c2cccnc2C(F)F)cccc1OCC=C(Cl)Cl [Example 76]
76 | 4.14 | Cc1c(NC(=O)c2cccnc2C(F)F)cccc1OCC1CCCCC1 [Example 77]
77 | 3.85 | Cc1c(NC(=O)c2cccnc2C(F)F)cccc1OCCC(C)(C)C [Example 78]
78 | 2.53 | Cc1c(NC(=O)c2cccnc2C(F)F)cccc1C1CCCCO1 (stereo not drawn) [Example 80]
79 | 3.80 | Cc1c(NC(=O)c2cccnc2C(F)F)cccc1C1CC2CCC1C2 (stereo not drawn) [Example 81]
80 | 2.02 | Cc1c(NC(=O)c2cccnc2C(F)F)cccc1C1CCCO1 (stereo not drawn) [Example 82]
81 | 3.94 | CCCC(CC)Oc1cccc(NC(=O)c2cccnc2C(F)F)c1C (stereo not drawn) [Example 83]
82 | 4.21 | Cc1c(NC(=O)c2cccnc2C(F)F)cccc1OC(C)CC(C)(C)C (stereo not drawn) [Example 84]
83 | 4.06 | Cc1c(NC(=O)c2cccnc2C(F)F)cccc1OC(C)C1CCCC1 (stereo not drawn) [Example 85]
84 | 3.94 | CCCCC(C)Oc1cccc(NC(=O)c2cccnc2C(F)F)c1C (stereo not drawn) [Example 86]
85 | 4.26 | Cc1c(NC(=O)c2cccnc2C(F)F)cccc1OC(C)CCC(C)C (stereo not drawn) [Example 87]

Row | Compound | LogP[a]
86 | Cc1c(NC(=O)c2cccnc2C(F)F)cccc1OC(C)Cc1ccccc1 (stereo not drawn) [Example 88] | 3.62

Same assay, conditions: reversed phase HPLC column; LC-UV, acidic range, 0.1% formic acid in water and acetonitrile as eluent (linear gradient 10% to 95% acetonitrile)

Row | chromatographic logP | Compound
87 | 3.48 | CCCC(C)Oc1cccc(NC(=O)c2cccnc2C(F)F)c1C (stereo not drawn) [Example 79, 2-(difluoromethyl)-N-[2-methyl-3-(pentan-2-yloxy)phenyl]nicotinamide]
